Measurements reported in US20150289513A1, “USE OF A COMPOUND COMPRISING A POLYFLUOROBENZYL MOIETY AGAINST INSECTICIDE-RESISTANT PESTS” (priority 2012, published 2015).

Legend:
[1] = test system: Anopheles gambiae (target-site-resistant and metabolic-resistant strain: RSPH); experiment: Glazed tile contact test, knock-down; assay type: in vivo
Protocol: (§1) To produce a suitable preparation Transfluthrin was dissolved in acetone. The active compound solution was pipetted onto a glazed tile and, after drying, adult mosquitoes of the species: • Anopheles gambiae (target-site-resistant and metabolic-resistant strain: RSPH), • Anopheles gambiae (target-site-resitant and metabolic-resistant strain: Tiassalé), • Anopheles gambiae (tar et-site-resitant and metabolic-resistant strain: Akron), • Anopheles gambiae (target-site-resistant strain: VK7), and • Anopheles funestus (metabolic-resistant strain FUMOZ-R) were placed onto the treated tile (each strain was tested on separate tiles). The exposition time was 30 minutes.
(§2) 0.25 hours, 0.5 hours, 1 hour, 2 hour, 3 hour, 4 hour and 24 hours after contact to the treated surface, the knock-down proportion of the test animals in % was determined. Here, 100% (effect) means that all mosquitoes have been killed; 0% (effect) means that none of the mosquitoes have been killed.
(§3) Similarly as outlined in example 2 for Transfluthrin, Metofluthrin efficacy was assessed against • Anopheles gambiae (target-site-resistant and metabolic-resistant strain: RSPH), • Anopheles funestus (metabolic-resistant strain FUMOZ-R), and • Culex quinquefasciatus (metabolic-resistant to DDT; strain P00), with the results shown in Tables 10 to 12. 0.25 hours, 0.5 hours, 1 hour, 2 hour, 3 hour, 4 hour and 24 hours after contact to the treated surface, the knock-down proportion of the test animals in % is depicted in Tables 10 to 12. 100% (effect) means that all mosquitoes have been killed; 0% (effect) means that none of the mosquitoes have been killed.
(§4) Similarly as outlined in example 2 for Transfluthrin, Metofluthrin efficacy was assessed against • Anopheles gambiae (target-site-resistant and metabolic-resistant strain: RSPH), • Anopheles funestus (metabolic-resistant strain FUMOZ-R), and with the results shown in Tables […]. 0.25 hours, 0.5 hours, 1 hour, 2 hour and 3 hours after contact to the treated surface, the knock-down proportion of the test animals in % is depicted in Tables 13 to 14. 100% (effect) means that all mosquitoes have been killed; 0% (effect) means that none of the mosquitoes have been killed.

[2] = test system: Anopheles funestus (metabolic-resistant strain FUMOZ-R); experiment: Glazed tile contact test, knock-down; assay type: in vivo
Protocol: as §1, §2, §3, §4

[3] = 0.32 g/ha, 0.25 h after contact

Question: Which results are given for `CC=CC1C(C(=O)OCc2c(F)c(F)c(COC)c(F)c2F)C1(C)C` (centres unmarked) [Metofluthrin, 2,3,5,6-Tetrafluoro-4-(methoxymethyl)benzyl 2,2-dimethyl-3-(prop-1-en-1-yl)cyclopropanecarboxylate]?
Answer: Effect % ([1]; 0.064 g/ha, 0.25 h after contact): 0%; Effect % ([1]; 0.064 g/ha, 0.5 h after contact): 0%; Effect % ([1]; 0.064 g/ha, 1 h after contact): 0%; Effect % ([1]; 0.064 g/ha, 2 h after contact): 0%; Effect % ([1]; 0.064 g/ha, 3 h after contact): 0%; Effect % ([1]; 0.064 g/ha, 4 h after contact): 10%; Effect % ([1]; 0.064 g/ha, 24 h after contact): 20%; Effect % [1, 3]: 0%; Effect % ([1]; 0.32 g/ha, 0.5 h after contact): 10%; Effect % ([1]; 0.32 g/ha, 1 h after contact): 10%; Effect % ([1]; 0.32 g/ha, 2 h after contact): 10%; Effect % ([1]; 0.32 g/ha, 3 h after contact): 0%; Effect % ([1]; 0.32 g/ha, 4 h after contact): 10%; Effect % ([1]; 0.32 g/ha, 24 h after contact): 20%; Effect % ([1]; 1.6 g/ha, 0.25 h after contact): 100%; Effect % ([1]; 1.6 g/ha, 0.5 h after contact): 100%; Effect % ([1]; 1.6 g/ha, 1 h after contact): 100%; Effect % ([1]; 1.6 g/ha, 2 h after contact): 100%; Effect % ([1]; 1.6 g/ha, 3 h after contact): 100%; Effect % ([1]; 1.6 g/ha, 4 h after contact): 100%; Effect % ([1]; 1.6 g/ha, 24 h after contact): 100%; Effect % ([1]; 8 g/ha, 0.25 h after contact): 100%; Effect % ([1]; 8 g/ha, 0.5 h after contact): 100%; Effect % ([1]; 8 g/ha, 1 h after contact): 100%; Effect % ([1]; 8 g/ha, 2 h after contact): 100%; Effect % ([1]; 8 g/ha, 3 h after contact): 100%; Effect % ([1]; 8 g/ha, 4 h after contact): 100%; Effect % ([1]; 8 g/ha, 24 h after contact): 100%; Effect % ([1]; 40 g/ha, 0.25 h after contact): 100%; Effect % ([1]; 40 g/ha, 0.5 h after contact): 100%; Effect % ([1]; 40 g/ha, 1 h after contact): 100%; Effect % ([1]; 40 g/ha, 2 h after contact): 100%; Effect % ([1]; 40 g/ha, 3 h after contact): 100%; Effect % ([1]; 40 g/ha, 4 h after contact): 100%; Effect % ([1]; 40 g/ha, 24 h after contact): 100%; Effect % ([1]; 200 g/ha, 0.25 h after contact): 100%; Effect % ([1]; 200 g/ha, 0.5 h after contact): 100%; Effect % ([1]; 200 g/ha, 1 h after contact): 100%; Effect % ([1]; 200 g/ha, 2 h after contact): 100%; Effect % ([1]; 200 g/ha, 3 h after contact): 100%; Effect % ([1]; 200 g/ha, 4 h after contact): 100%; Effect % ([1]; 200 g/ha, 24 h after contact): 100%; Effect % ([1]; 1000 g/ha, 0.25 h after contact): 100%; Effect % ([1]; 1000 g/ha, 0.5 h after contact): 100%; Effect % ([1]; 1000 g/ha, 1 h after contact): 100%; Effect % ([1]; 1000 g/ha, 2 h after contact): 100%; Effect % ([1]; 1000 g/ha, 3 h after contact): 100%; Effect % ([1]; 1000 g/ha, 4 h after contact): 100%; Effect % ([1]; 1000 g/ha, 24 h after contact): 100%; Effect % ([2]; 0.064 /ha, 0.25 h after contact): 0%; Effect % ([2]; 0.064 /ha, 0.5 h after contact): 0%; Effect % ([2]; 0.064 /ha, 1 h after contact): 0%; Effect % ([2]; 0.064 /ha, 2 h after contact): 0%; Effect % ([2]; 0.064 /ha, 3 h after contact): 0%; Effect % ([2]; 0.064 /ha, 4 h after contact): 0%; Effect % ([2]; 0.064 /ha, 24 h after contact): 20%; Effect % ([2]; 0.32 /ha, 0.25 h after contact): 0%; Effect % ([2]; 0.32 /ha, 0.5 h after contact): 0%; Effect % ([2]; 0.32 /ha, 1 h after contact): 0%; Effect % ([2]; 0.32 /ha, 2 h after contact): 0%; Effect % ([2]; 0.32 /ha, 3 h after contact): 0%; Effect % ([2]; 0.32 /ha, 4 h after contact): 0%; Effect % ([2]; 0.32 /ha, 24 h after contact): 10%; Effect % ([2]; 1.6 /ha, 0.25 h after contact): 90%; Effect % ([2]; 1.6 /ha, 0.5 h after contact): 100%; Effect % ([2]; 1.6 /ha, 1 h after contact): 100%; Effect % ([2]; 1.6 /ha, 2 h after contact): 80%; Effect % ([2]; 1.6 /ha, 3 h after contact): 40%; Effect % ([2]; 1.6 /ha, 4 h after contact): 40%; Effect % ([2]; 1.6 /ha, 24 h after contact): 70%; Effect % ([2]; 8 /ha, 0.25 h after contact): 100%; Effect % ([2]; 8 /ha, 0.5 h after contact): 100%; Effect % ([2]; 8 /ha, 1 h after contact): 100%; Effect % ([2]; 8 /ha, 2 h after contact): 100%; Effect % ([2]; 8 /ha, 3 h after contact): 100%; Effect % ([2]; 8 /ha, 4 h after contact): 100%; Effect % ([2]; 8 /ha, 24 h after contact): 100%; Effect % ([2]; 40 /ha, 0.25 h after contact): 100%; Effect % ([2]; 40 /ha, 0.5 h after contact): 100%; Effect % ([2]; 40 /ha, 1 h after contact): 100%; Effect % ([2]; 40 /ha, 2 h after contact): 100%; Effect % ([2]; 40 /ha, 3 h after contact): 100%; Effect % ([2]; 40 /ha, 4 h after contact): 100%; Effect % ([2]; 40 /ha, 24 h after contact): 100%; Effect % ([2]; 200 /ha, 0.25 h after contact): 100%; Effect % ([2]; 200 /ha, 0.5 h after contact): 100%; Effect % ([2]; 200 /ha, 1 h after contact): 100%; Effect % ([2]; 200 /ha, 2 h after contact): 100%; Effect % ([2]; 200 /ha, 3 h after contact): 100%; Effect % ([2]; 200 /ha, 4 h after contact): 100%; Effect % ([2]; 200 /ha, 24 h after contact): 100%; Effect % ([2]; 1000 /ha, 0.25 h after contact): 100%; Effect % ([2]; 1000 /ha, 0.5 h after contact): 100%; Effect % ([2]; 1000 /ha, 1 h after contact): 100%; Effect % ([2]; 1000 /ha, 2 h after contact): 100%; Effect % ([2]; 1000 /ha, 3 h after contact): 100%; Effect % ([2]; 1000 /ha, 4 h after contact): 100%; Effect % ([2]; 1000 /ha, 24 h after contact): 100%

Question: `CC1(C)[C@H](C=C(Cl)Cl)[C@H]1C(=O)OCc1c(F)c(F)cc(F)c1F` [Transfluthrin, (1R,3S)-3-(2,2-Dichlorovinyl)-2,2-dimethyl-1-cyclopropanecarboxylic acid (2,3,5,6-tetrafluorophenyl)methyl ester] was tested. Which Effect % [2, 3] did it give?
Answer: 95%

Question: What about the Effect % ([2]; 0.32 g/ha, 0.5 h after contact) of the same compound?
Answer: 100%

Question: What about the Effect % ([2]; 0.32 g/ha, 1 h after contact) of the same compound?
Answer: 100%

Question: What about the Effect % ([2]; 0.32 g/ha, 2 h after contact) of the same compound?
Answer: 60%

Question: What about the Effect % ([2]; 0.32 g/ha, 3 h after contact) of the same compound?
Answer: 40%

Question: And the Effect % ([2]; 0.32 g/ha, 4 h after contact)?
Answer: 40%

Question: What about the Effect % ([2]; 1.6 g/ha, 0.25 h after contact) of the same compound?
Answer: 100%

Question: What about the Effect % ([2]; 1.6 g/ha, 0.5 h after contact) of the same compound?
Answer: 100%

Question: And the Effect % ([2]; 1.6 g/ha, 1 h after contact)?
Answer: 100%

Question: And the Effect % ([2]; 1.6 g/ha, 2 h after contact)?
Answer: 100%

Question: And the Effect % ([2]; 1.6 g/ha, 3 h after contact)?
Answer: 95%

Question: And the Effect % ([2]; 1.6 g/ha, 4 h after contact)?
Answer: 100%

Question: What about the Effect % ([2]; 8 g/ha, 0.25 h after contact) of the same compound?
Answer: 100%

Question: What about the Effect % ([2]; 8 g/ha, 0.5 h after contact) of the same compound?
Answer: 100%

Question: What about the Effect % ([2]; 8 g/ha, 1 h after contact) of the same compound?
Answer: 100%

Question: What about the Effect % ([2]; 8 g/ha, 2 h after contact) of the same compound?
Answer: 100%

Question: What about the Effect % ([2]; 8 g/ha, 3 h after contact) of the same compound?
Answer: 100%

Question: What about the Effect % ([2]; 8 g/ha, 4 h after contact) of the same compound?
Answer: 100%

Question: What about the Effect % ([2]; 40 g/ha, 0.25 h after contact) of the same compound?
Answer: 100%

Question: What about the Effect % ([2]; 40 g/ha, 0.5 h after contact) of the same compound?
Answer: 100%

Question: And the Effect % ([2]; 40 g/ha, 1 h after contact)?
Answer: 100%

Question: What about the Effect % ([2]; 40 g/ha, 2 h after contact) of the same compound?
Answer: 100%

Question: And the Effect % ([2]; 40 g/ha, 3 h after contact)?
Answer: 100%

Question: What about the Effect % ([2]; 40 g/ha, 4 h after contact) of the same compound?
Answer: 100%

Question: What about the Effect % ([2]; 200 g/ha, 0.25 h after contact) of the same compound?
Answer: 100%

Question: And the Effect % ([2]; 200 g/ha, 0.5 h after contact)?
Answer: 100%

Question: And the Effect % ([2]; 200 g/ha, 1 h after contact)?
Answer: 100%

Question: And the Effect % ([2]; 200 g/ha, 2 h after contact)?
Answer: 100%

Question: And the Effect % ([2]; 200 g/ha, 3 h after contact)?
Answer: 100%

Question: What about the Effect % ([2]; 200 g/ha, 4 h after contact) of the same compound?
Answer: 100%
